Values of other authors in US20050118265A1, “Antifungal oral dosage forms and the methods for preparation” (priority 2003, published 2005).

Columns and labels:
[1] = based on extrapolation of values obtained from methanolic solutions
[2] = pH 8.1

CCC(C)n1ncn(-c2ccc(N3CCN(c4ccc(OCC5COC(Cn6cncn6)(c6ccc(Cl)cc6Cl)O5)cc4)CC3)cc2)c1=O (racemic) [Itraconazole, (±)-1-[(RS)-sec-butyl]-4-[p-[4-[p-[[(2R,4S)-2-(2,4-dichlorophenyl)-2-(1H-1,2,4-triazol-1-ylmethyl)-1,3-dioxolan-4-yl]methoxy]phenyl]-1-piperazinyl]phenyl]-Ä 2-1,2,4-triazolin-5-one]
solubility in alcohol (alcohol): very slightly soluble | solubility in dichloromethane (dichloromethane): freely soluble | solubility in ethanol (ethanol alone): poorly soluble | solubility in water (water): insoluble | pKa [1]: 3.70 | log (n-octanol/water) partition coefficient [2]: 5.66
